Assay results published in patent US20120083471A1, “Novel Compounds, Pharmaceutical Compositions Containing Same, Methods of Use for Same, and Methods for Preparing Same” (priority 2008, published 2012).
Like-named read-outs stand apart in the source and are kept apart here.

Experiments:
mtGPAT1 = target: T1, mtGPAT1 (Mus musculus, UniProt Q61586); assay: In vitro mtGPAT inhibition: acylation of 14C-glycerol 3-phosphate with palmitoyl-CoA, scintillation counting; assay type: biochemical
T1 construct: from tissue; host or cells: mitochondrial preparation
T1 sequence (Q61586 1-827): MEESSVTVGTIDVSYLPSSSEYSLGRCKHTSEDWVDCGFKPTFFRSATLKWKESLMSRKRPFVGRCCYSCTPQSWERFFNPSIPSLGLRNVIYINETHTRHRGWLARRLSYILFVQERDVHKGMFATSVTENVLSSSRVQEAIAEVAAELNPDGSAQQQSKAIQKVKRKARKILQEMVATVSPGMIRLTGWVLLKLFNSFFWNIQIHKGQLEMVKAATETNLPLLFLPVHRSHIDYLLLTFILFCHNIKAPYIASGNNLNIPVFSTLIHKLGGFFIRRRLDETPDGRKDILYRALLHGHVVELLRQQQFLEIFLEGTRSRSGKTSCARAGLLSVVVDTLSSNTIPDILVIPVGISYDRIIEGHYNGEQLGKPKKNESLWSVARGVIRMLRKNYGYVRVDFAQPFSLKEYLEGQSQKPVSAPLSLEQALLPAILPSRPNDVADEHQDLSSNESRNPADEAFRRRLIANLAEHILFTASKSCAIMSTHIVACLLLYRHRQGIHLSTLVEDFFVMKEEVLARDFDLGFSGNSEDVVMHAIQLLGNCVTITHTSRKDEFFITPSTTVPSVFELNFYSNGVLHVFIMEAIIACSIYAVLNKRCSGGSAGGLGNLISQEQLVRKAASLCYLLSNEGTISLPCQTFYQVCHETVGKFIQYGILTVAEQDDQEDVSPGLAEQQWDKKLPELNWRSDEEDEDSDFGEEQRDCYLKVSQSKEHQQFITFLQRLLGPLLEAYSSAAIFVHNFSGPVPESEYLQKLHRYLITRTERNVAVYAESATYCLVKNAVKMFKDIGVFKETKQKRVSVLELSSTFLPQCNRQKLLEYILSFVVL
Procedure: The compounds produced as described above were evaluated for their ability to inhibit the acylation of glycerol-3-phosphate in vitro. The acylation reaction between ^14C-labelled glycerol-3-phosphate and palmitoyl-CoA, initiated by adding mtGPAT, was measured in the presence of varying concentrations of the inhibitor by scintillation counting as described in more detail below.
A mitochondrial preparation of glycerol 3-phosphate acyltransferase was added to the incubation mixture containing ^14C-labeled glycerol 3-phosphate, palmitoyl-CoA, and varying inhibitor concentrations to initiate the reaction. After ten min, the reaction was terminated by adding chloroform, methanol, and 1% perchloric acid. Five minutes later, more chloroform and perchloric acid were added, and the upper aqueous layer was removed. After washing three times with 1% perchloric acid, the organic layer was evaporated under nitrogen, and the amount of ^14C present was counted to determine the extent of reaction inhibition. Data points were recorded in triplicate, and IC50 values were calculated based on the amount of test inhibitor necessary to produce 50% of mtGPAT activity observed in the absence of inhibitor but in the presence of DMSO vehicle control.

FAO = FAO (SC 150 and Max) entries of the compound data sheets
[1] = compounds 4a-t and 7a-t, read-out: GPAT IC50
[2] = Table 1, sulfonamides 5a-f and 13a-f, triplicate, read-out: IC50 (μM) ± SD, In Vitro Anti-mtGPAT1 Activity
[3] = Table 2, sulfonamides 15a-i and 17a-f, triplicate, read-out: IC50 (μM) ± SD, In Vitro Anti-mtGPAT1 Activity
[4] = Table 3, sulfonamides 21a-c and 24a-f, triplicate, read-out: IC50 (μM) ± SD, In Vitro Anti-mtGPAT1 Activity

CCCCCCCCS(=O)(=O)Nc1cc(-c2ccc(Cl)cc2)ccc1C(=O)O
IC50 (mtGPAT1; [1]): 18.4 µM | FAO SC 150 (FAO): FAS (IC50) Not Tested CPT I Stim Not Tested FAO SC 150 Neg SA/MH (MIC) ug/ml

CCCCCCCCS(=O)(=O)Nc1cc(-c2cccc(Cl)c2)ccc1C(=O)O
IC50 (mtGPAT1; [1]): 16 µM | FAO SC 150 (FAO): FAS (IC50) Not Tested CPT I Stim Not Tested FAO SC 150 Neg SA/MH (MIC) ug/ml

CCCCCCCCS(=O)(=O)Nc1cc(-c2cccs2)ccc1C(=O)O
IC50 (mtGPAT1; [1]): 22.5 µM | FAO SC 150 (FAO): FAS (IC50) Not Tested CPT I Stim Not Tested FAO SC 150 Neg SA/MH (MIC) ug/ml

CCCCCCCCS(=O)(=O)Nc1cc(-c2cccnc2)ccc1C(=O)O
IC50 (mtGPAT1; [1]): 65.8 µM | FAO SC 150 (FAO): FAS (IC50) Not Tested CPT I Stim Not Tested FAO SC 150 Neg SA/MH (MIC) ug/ml

CCCCCCCCS(=O)(=O)Nc1cc(-c2ccc(-c3ccccc3)cc2)ccc1C(=O)O
IC50 (mtGPAT1; [1]): 17.4 µM | FAO SC 150 (FAO): FAS (IC50) Not Tested CPT I Stim Not Tested FAO SC 150 Neg SA/MH (MIC) ug/ml

CCCCCCCCS(=O)(=O)Nc1cc(-c2ccccc2-c2ccccc2)ccc1C(=O)O
IC50 (mtGPAT1; [1]): 18 µM | FAO SC 150 (FAO): FAS (IC50) Not Tested CPT I Stim Not Tested FAO SC 150 Neg SA/MH (MIC) ug/ml

CCCCCCCCS(=O)(=O)Nc1cc(-c2ccccc2OC)ccc1C(=O)O
IC50 (mtGPAT1; [1]): 17.6 µM | FAO SC 150 (FAO): FAS (IC50) Not Tested CPT I Stim Not Tested FAO SC 150 Neg SA/MH (MIC) ug/ml

CCCCCCCCS(=O)(=O)Nc1cc(-c2ccc(OC)cc2)ccc1C(=O)O
IC50 (mtGPAT1; [1]): 16 µM | FAO SC 150 (FAO): FAS (IC50) Not Tested CPT I Stim Not Tested FAO SC 150 Neg SA/MH (MIC) ug/ml

CCCCCCCCS(=O)(=O)Nc1ccc(-c2ccc(Cl)cc2)cc1C(=O)O
IC50 (mtGPAT1; [1]): 13.4 µM | FAO SC 150 (FAO): FAS (IC50) Not Tested CPT I Stim Not Tested FAO SC 150 Neg SA/MH (MIC) ug/ml

CCCCCCCCS(=O)(=O)Nc1ccc(-c2cccc(Cl)c2)cc1C(=O)O
IC50 (mtGPAT1; [1]): 13 µM | FAO SC 150 (FAO): FAS (IC50) Not Tested CPT I Stim Not Tested FAO SC 150 Neg SA/MH (MIC) ug/ml

CCCCCCCCS(=O)(=O)Nc1ccc(-c2ccccc2Cl)cc1C(=O)O
IC50 (mtGPAT1; [1]): 14.4 µM | FAO SC 150 (FAO): FAS (IC50) Not Tested CPT I Stim Not Tested FAO SC 150 Neg SA/MH (MIC) ug/ml

CCCCCCCCS(=O)(=O)Nc1ccc(-c2cccc(C(C)=O)c2)cc1C(=O)O
IC50 (mtGPAT1; [1]): 28 µM | FAO SC 150 (FAO): FAS (IC50) Not Tested CPT I Stim Not Tested FAO SC 150 Neg SA/MH (MIC) ug/ml

CCCCCCCCS(=O)(=O)Nc1ccc(-c2ccc(C(C)=O)cc2)cc1C(=O)O
IC50 (mtGPAT1; [1]): 702 µM | FAO SC 150 (FAO): FAS (IC50) Not Tested CPT I Stim Not Tested FAO SC 150 Neg SA/MH (MIC) ug/ml

CCCCCCCCS(=O)(=O)Nc1ccc(-c2ccccc2-c2ccccc2)cc1C(=O)O
IC50 (mtGPAT1; [1]): 13.5 µM | FAO SC 150 (FAO): FAS (IC50) Not Tested CPT I Stim Not Tested FAO SC 150 Neg SA/MH (MIC) ug/ml

CCCCCCCCS(=O)(=O)Nc1ccc(-c2ccc(-c3ccccc3)cc2)cc1C(=O)O
IC50 (mtGPAT1; [1]): 65.7 µM | FAO SC 150 (FAO): FAS (IC50) Not Tested CPT I Stim Not Tested FAO SC 150 Neg SA/MH (MIC) ug/ml

CCCCCCCCS(=O)(=O)Nc1ccc(-c2ccccc2OC)cc1C(=O)O
IC50 (mtGPAT1; [1]): 23.4 µM | FAO SC 150 (FAO): FAS (IC50) Not Tested CPT I Stim Not Tested FAO SC 150 Neg SA/MH (MIC) ug/ml

CCCCCCCCS(=O)(=O)Nc1ccc(-c2cccc(O)c2)cc1C(=O)O
IC50 (mtGPAT1; [1]): 57.7 µM

CCCCCCCCS(=O)(=O)Nc1ccc(-c2ccc(F)cc2)cc1C(=O)O
IC50 (mtGPAT1; [1]): 20.6 µM

CCCCCCCCS(=O)(=O)Nc1ccc(-c2cc(Cl)cc(Cl)c2)cc1C(=O)O
IC50 (mtGPAT1; [1]): 19 µM

CCCCCCCCS(=O)(=O)Nc1cc(-c2ccccc2F)ccc1C(=O)O
IC50 (mtGPAT1; [1]): 55.7 µM

CCCCCCCCS(=O)(=O)Nc1cc(-c2cccc(F)c2)ccc1C(=O)O
IC50 (mtGPAT1; [1]): 28.7 µM

CCCCCCCCS(=O)(=O)Nc1cc(-c2ccc(F)cc2)ccc1C(=O)O
IC50 (mtGPAT1; [1]): 25.3 µM

CCCCCCCCS(=O)(=O)Nc1cc(-c2cc(Cl)cc(Cl)c2)ccc1C(=O)O
IC50 (mtGPAT1; [1]): 19.2 µM

CCCCCCCCS(=O)(=O)Nc1cc(-c2ccc(Cl)cc2Cl)ccc1C(=O)O
IC50 (mtGPAT1; [1]): 18.3 µM

CCCCCCCCS(=O)(=O)Nc1cc(-c2ccccc2O)ccc1C(=O)O
IC50 (mtGPAT1; [1]): 62.6 µM

CCCCCCCCS(=O)(=O)Nc1cc(-c2cccc(O)c2)ccc1C(=O)O
IC50 (mtGPAT1; [1]): 55.5 µM

CCCCCCCCS(=O)(=O)Nc1ccc(-c2ccc(O)cc2)cc1C(=O)O
IC50 (mtGPAT1; [1]): 60.9 µM

CCCCCCCCS(=O)(=O)Nc1cc(-c2ccc(O)cc2)ccc1C(=O)O
IC50 (mtGPAT1; [1]): 66.1 µM

CCCCCS(=O)(=O)Nc1ccccc1CP(=O)(O)O [Compound 13a, 2-(Pentylsulfonamido)benzylphosphonic acid]
IC50 (mtGPAT1; [2]): 41.4 ± 8.4 µM

CCCCCCCCCS(=O)(=O)Nc1ccccc1CP(=O)(O)O [Compound 13b, 2-(Nonylsulfonamido)benzylphosphonic acid]
IC50 (mtGPAT1; [2]): 30.6 µM

CCCCCCCCCS(=O)(=O)Nc1ccc(CP(=O)(O)O)cc1 [Compound 13f, 4-(Nonylsulfonamido)benzylphosphonic acid]
IC50 (mtGPAT1; [2]): 30.7 µM

CCCCCCCCCS(=O)(=O)Nc1ccc(C(=O)O)cc1 [Compound 15a, 4-(Nonylsulfonamido)benzoic acid]
IC50 (mtGPAT1; [3]): 29.1 ± 4.3 µM

O=C(O)c1ccc(NS(=O)(=O)c2ccccc2)cc1 [Compound 15b, 4-(Phenylsulfonamido)benzoic acid]
IC50 (mtGPAT1; [3]): 41.9 ± 5.3 µM

O=C(O)c1ccc(NS(=O)(=O)c2ccc(Cl)cc2)cc1 [Compound 15c, 4-(4-Chlorophenylsulfonamido)benzoic acid]
IC50 (mtGPAT1; [3]): 33.7 ± 1.3 µM

O=C(O)c1cccc(NS(=O)(=O)c2ccccc2)c1 [Compound 15e, 3-(Phenylsulfonamido)benzoic acid]
IC50 (mtGPAT1; [3]): 38.3 ± 7.6 µM

O=C(O)c1cccc(NS(=O)(=O)c2ccc(Cl)cc2)c1 [Compound 15f, 3-(4-Chlorophenylsulfonamido)benzoic acid]
IC50 (mtGPAT1; [3]): 23.6 ± 1.2 µM

O=C(O)c1ccccc1NS(=O)(=O)c1ccc(Cl)cc1 [Compound 15i, 2-(4-Chlorophenylsulfonamido)benzoic acid]
IC50 (mtGPAT1; [3]): 33.5 ± 2.5 µM

O=C(O)c1ccc(NS(=O)(=O)Cc2ccccc2)cc1 [Compound 17a, 4-(Phenylmethylsulfonamido)benzoic acid]
IC50 (mtGPAT1; [3]): 64.5 ± 11.6 µM

O=C(O)c1ccc(NS(=O)(=O)CCc2ccccc2)cc1 [Compound 17b, 4-(2-Phenylethylsulfonamido)benzoic acid]
IC50 (mtGPAT1; [3]): 63 ± 12.9 µM

O=C(O)c1cccc(NS(=O)(=O)Cc2ccccc2)c1 [Compound 17c, 3-(Phenylmethylsulfonamido)benzoic acid]
IC50 (mtGPAT1; [3]): 52.1 ± 9 µM

O=C(O)c1cccc(NS(=O)(=O)CCc2ccccc2)c1 [Compound 17d, 3-(2-Phenylethylsulfonamido)benzoic acid]
IC50 (mtGPAT1; [3]): 50.3 ± 4.4 µM

O=C(O)c1ccccc1NS(=O)(=O)Cc1ccccc1 [Compound 17e, 2-(Phenylmethylsulfonamido)benzoic acid]
IC50 (mtGPAT1; [3]): 40.7 ± 1.2 µM

O=C(O)c1ccccc1NS(=O)(=O)CCc1ccccc1 [Compound 17f, 2-(2-Phenylethylsulfonamido)benzoic acid]
IC50 (mtGPAT1; [3]): 46.4 ± 4.5 µM

CCCCCCCCS(=O)(=O)Nc1ccc(P(=O)(O)O)cc1 [Compound 21a, 4-(Octylsulfonamido)phenylphosphonic acid]
IC50 (mtGPAT1; [4]): 33.3 ± 3.8 µM

CCCCCCCCS(=O)(=O)Nc1cccc(P(=O)(O)O)c1 [Compound 21b, 3-(Octylsulfonamido)phenylphosphonic acid]
IC50 (mtGPAT1; [4]): 25.3 ± 5.4 µM

CCCCCCCCS(=O)(=O)Nc1ccccc1P(=O)(O)O [Compound 21c, 2-(Octylsulfonamido)phenylphosphonic acid]
IC50 (mtGPAT1; [4]): 25.7 ± 2.5 µM

CS(=O)(=O)Nc1ccccc1C(=O)O [Compound 24a, 2-(Methylsulfonamido)benzoic acid]
IC50 (mtGPAT1; [4]): 28.6 ± 4.6 µM

CCCCCCCCCS(=O)(=O)Nc1ccc(Cl)cc1C(=O)O [Compound 24d, 5-Chloro-2-(nonylsulfonamido)benzoic acid]
IC50 (mtGPAT1; [4]): 11.5 ± 0.7 µM
